Tested on: Normal Mice
Assay: Hemoglobin increase in normal mice, oral QD, TIW, QW
Format: in vivo, C57BL/6J mice
From the text: This experiment evaluated the effects of different dosing frequencies of the test compound Comp-1 at the same weekly dose on hemoglobin and various routine hematological parameters in male C57BL/6J mice.
After acclimatization feeding, on Day 0, submandibular vein blood was collected from 92 male mice aged 6-8 weeks for routine hematological analysis. Based on the Day 0 Hb (hemoglobin) results, 80 mice were selected for use in this experiment and divided into groups as follows: Vehicle (QD, 5 mice), Comp-1 (4.5 mg/kg, QD, 5 mice), Comp-1 (10.5 mg/kg, TIW, 5 mice), Comp-1 (31.5 mg/kg, QW, 5 mice), Comp-1 (9 mg/kg, QD, 15 mice), Comp-1 (21 mg/kg, TIW, 15 mice), Comp-1 (63 mg/kg, QW, 15 mice), Comp-1 (15 mg/kg, QD, 5 mice), Comp-1 (35 mg/kg, TIW, 5 mice), and Comp-1 (105 mg/kg, QW, 5 mice). On Day 14 and Day 28, submandibular vein blood was collected for routine hematological analysis. Quantitative data results were analyzed statistically using one-way analysis of variance (ANOVA) between groups, followed by Dunnett's multiple comparison method. Two-tailed analysis was used for statistics, and the statistical significance level was set at P<0.05.

[1] = 4.5 mg/kg, QD, total weekly dose 31.5 mg/kg
[2] = 9.0 mg/kg, QD, total weekly dose 63.0 mg/kg
[3] = 10.5 mg/kg, TIW, total weekly dose 31.5 mg/kg
[4] = 15.0 mg/kg, QD, total weekly dose 105.0 mg/kg
[5] = 21.0 mg/kg, TIW, total weekly dose 63.0 mg/kg
[6] = 31.5 mg/kg, QW, total weekly dose 31.5 mg/kg
[7] = 35.0 mg/kg, TIW, total weekly dose 105.0 mg/kg
[8] = 63.0 mg/kg, QW, total weekly dose 63.0 mg/kg
[9] = 105.0 mg/kg, QW, total weekly dose 105.0 mg/kg

For `O=C(O)CNC(=O)C1=C(O)C2(CCCC2)n2c(ccc2-c2ccccc2)C1=O` [Comp-1, (6′-hydroxy-8′-oxo-3′-phenyl-8′H-spiro[cyclopentane-1,5′-indolizine]-7′-carbonyl)glycine], the “Hb Day 0” value [1] was 15.2 ± 0.61 g/dL, the “Hb Day 14” value [1] was 18.2 ± 0.52 g/dL and the “Hb Day 28” value [1] was 19.7 ± 0.53 g/dL. For the same molecule, the “Hb Day 0” value [2] was 15.3 ± 0.51 g/dL, the “Hb Day 14” value [2] was 20.6 ± 0.44 g/dL and the “Hb Day 28” value [2] was 23.1 ± 0.80 g/dL. For the same molecule, the “Hb Day 0” value [3] was 15.3 ± 0.66 g/dL, the “Hb Day 14” value [3] was 17.9 ± 0.54 g/dL and the “Hb Day 28” value [3] was 19.2 ± 0.22 g/dL. For the same molecule, the “Hb Day 0” value [4] was 15.3 ± 0.48 g/dL, the “Hb Day 14” value [4] was 20.1 ± 0.54 g/dL and the “Hb Day 28” value [4] was 22.8 ± 0.29 g/dL. For the same molecule, the “Hb Day 0” value [5] was 15.3 ± 0.49 g/dL, the “Hb Day 14” value [5] was 19.7 ± 0.77 g/dL and the “Hb Day 28” value [5] was 22.0 ± 0.11 g/dL. The “Hb Day 0” value [6] was 15.3 ± 0.48 g/dL, the “Hb Day 14” value [6] was 16.7 ± 0.40 g/dL and the “Hb Day 28” value [6] was 17.2 ± 0.52 g/dL. The “Hb Day 0” value [7] was 15.3 ± 0.44 g/dL, the “Hb Day 14” value [7] was 18.9 ± 0.11 g/dL and the “Hb Day 28” value [7] was 22.4 ± 0.57 g/dL. The “Hb Day 0” value [8] was 15.3 ± 0.51 g/dL, the “Hb Day 14” value [8] was 17.4 ± 0.62 g/dL and the “Hb Day 28” value [8] was 18.5 ± 0.74 g/dL. For the same molecule, the “Hb Day 0” value [9] was 15.3 ± 0.50 g/dL, the “Hb Day 14” value [9] was 19.0 ± 0.40 g/dL and the “Hb Day 28” value [9] was 20.0 ± 0.48 g/dL. For the same molecule, the “mean hemoglobin values vs Vehicle control group” value (Day 14 and Day 28, all groups receiving Comp-1, P<0.001) was “significantly different”.
